According to patent US4342753A, “Carboxyalkyl derivatives of rutin poly(H-)sulfate” (American Cyanamid Company, priority 1981, dated 1982):
Structures can show the parent of a compound that is named as a salt. Where two headings read alike, the source gives them in different places.

What was measured:
activated human C1 = biological target: T1, activated human C1 (Homo sapiens, UniProt P09871); experiment: Test Code 026 (C1 inhibitor); assay type: biochemical; settings: serial dilutions are twofold; higher well number indicates higher activity
T1 sequence (P09871 16-437 limits assumed): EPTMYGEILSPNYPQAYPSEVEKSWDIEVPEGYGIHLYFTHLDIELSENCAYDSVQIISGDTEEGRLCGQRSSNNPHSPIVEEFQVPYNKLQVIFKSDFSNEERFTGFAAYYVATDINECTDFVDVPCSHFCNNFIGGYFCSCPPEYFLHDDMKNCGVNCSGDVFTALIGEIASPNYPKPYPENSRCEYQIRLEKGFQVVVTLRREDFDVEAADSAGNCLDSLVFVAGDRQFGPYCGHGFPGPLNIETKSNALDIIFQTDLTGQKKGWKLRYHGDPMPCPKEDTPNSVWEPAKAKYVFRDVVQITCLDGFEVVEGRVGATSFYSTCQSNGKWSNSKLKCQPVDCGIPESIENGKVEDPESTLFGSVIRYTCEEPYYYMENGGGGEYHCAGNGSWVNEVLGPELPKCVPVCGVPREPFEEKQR
T1 sequence (P09871 438-688 limits assumed): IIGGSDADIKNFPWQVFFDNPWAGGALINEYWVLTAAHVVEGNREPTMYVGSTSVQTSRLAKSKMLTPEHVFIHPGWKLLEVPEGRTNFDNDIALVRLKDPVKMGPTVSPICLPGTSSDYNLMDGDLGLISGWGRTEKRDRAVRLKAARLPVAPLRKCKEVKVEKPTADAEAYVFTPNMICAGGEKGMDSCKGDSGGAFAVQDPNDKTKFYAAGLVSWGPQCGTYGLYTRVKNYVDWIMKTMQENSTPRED
Description: (§1) An active inhibitor protects C2 from C1 and C4; (ii) Cap 50 Test--Here, appropriate amounts of the test compound are added to a pool of guinea pig serum in vitro, after which the undiluted serum capillary tube assay referred to above is run. The concentration of compound inhibiting 50% is reported; and (iii) Guinea Pig Intraperitoneal Test (GPIP)--Guinea pigs weighing about 300 g. are dosed intraperitoneally (i.p.) with 200 mg./kg. of the test compound dissolved in saline and adjusted to pH 7-8. Approximately 0.4 ml. blood samples, taken by orbital sinus puncture 30 minutes and one hour after injections, are collected directly into centrifuge tubes; 5 ml. blood samples, taken by decapitation 2 hours after injection are collected directly into beakers. The samples are allowed to clot, centrifuged, and the resultant sera are assayed for complement activity using the capillary complement assay. Percent inhibition are calculated by comparison with simultaneous controls.

[1] = tested on: complement activity of sera; experiment: Guinea Pig Intraperitoneal Test (GPIP); settings: Cavia porcellus, ip, 200 mg./kg. i.p., read-out: In vivo Activity (Guinea Pig) Intraperitoneal % Inhibition
Description: as §1, with “[…],” for “taken by orbital sinus puncture 30 minutes and one hour after injections,”, “taken by decapitation 2 hours after injection are collected directly into” left out

human serum complement = settings: in vitro and in vivo; cited from earlier work

Row | Compound | In vitro Activity 026 (activity in wells, serial dilution assay) (activated human C1) | inhibition at 200 mg/kg ([1]; Time 2 hours) | inhibition at 200 mg/kg ([1]; Time 6 hours) | inhibition at 200 mg/kg ([1]; Time 24 hours) | anticomplementary activity (human serum complement)
1 | C[C@@H]1O[C@@H](OC[C@H]2O[C@@H](Oc3c(-c4ccc(OCC(=O)O)c(OS(=O)(=O)O)c4)oc4cc(OCC(=O)O)cc(OS(=O)(=O)O)c4c3=O)[C@H](OS(=O)(=O)O)[C@@H](OS(=O)(=O)O)[C@@H]2OS(=O)(=O)O)[C@H](OS(=O)(=O)O)[C@H](OS(=O)(=O)O)[C@H]1OS(=O)(=O)O [4',7-Bis(carboxymethyl)rutin, octa(H-sulfate), decasodium salt] | 11 wells |  |  |  | 
2 | C[C@@H]1O[C@@H](OC[C@H]2O[C@@H](Oc3c(-c4ccc(OCC(=O)O)c(OS(=O)(=O)O)c4)oc4cc(OS(=O)(=O)O)cc(OS(=O)(=O)O)c4c3=O)[C@H](OS(=O)(=O)O)[C@@H](OS(=O)(=O)O)[C@@H]2OS(=O)(=O)O)[C@H](OS(=O)(=O)O)[C@H](OS(=O)(=O)O)[C@H]1OS(=O)(=O)O [4'-Carboxymethyl-rutin, nona(H-sulfate)decasodium salt] | 10 wells | 82% | 69% | 18% | 
3 | pentosanpolysulfoester |  |  |  |  | has an anticomplementary activity on human serum, both in vitro and in vivo
